Test results taken from patent publication US4174390A, “Antibiotic A-7413 and process for preparation thereof” (Eli Lilly and Company, priority 1978, dated 1979).
In brackets after ≈: the same amount, converted by molar mass.

Legend:
[1] = system: Streptococcus species; assay: agar-dilution tests, penicillin-G-resistant Group-D-Streptococcus strains; format: cell-based, Streptococcus sp.
Experimental: In Table VI are summarized the results of agar-dilution tests wherein A-7413 factor A was tested against a variety of Streptococcus species. These tests employed trypticase-soy agar plus blood, 10^-2 dilution of an overnight broth culture in 0.3% agar as an inoculum, giving approximately 5,000 bacteria per 7.5-mm of agar surface. Again, the results for vancomycin in the same test are reported for comparison. All strains tested are penicillin-G-resistant, Group-D-Streptococcus strains.

[2] = system: Staphylococcus aureus strains; assay: standard agar-dilution tests (ICS method), S. aureus strains; format: cell-based
Experimental: A special advantage of the A-7413 compounds is their ability to inhibit organisms which are resistant to other antibiotics. In Table V are summarized the results of standard agar-dilution tests (using the ICS method) wherein A-7413 factor A was tested against a variety of Staphylococcus aureus strains. Results are given as the minimal inhibitory concentration (MIC) at which inhibition of the S. aureus strain occurred. The results obtained with the known antibiotic vancomycin in the same test are included for comparison.

Compound: CN[C@H](CC(C)C)C(=O)N[C@H]1C(=O)N[C@@H](CC(N)=O)C(=O)N[C@H]2C(=O)N[C@H]3C(=O)N[C@H](C(=O)N[C@H](C(=O)O)c4cc(O)cc(O)c4-c4cc3ccc4O)[C@H](O)c3ccc(c(Cl)c3)Oc3cc2cc(c3O[C@@H]2O[C@H](CO)[C@@H](O)[C@H](O)[C@H]2O[C@H]2C[C@](C)(N)[C@H](O)[C@H](C)O2)Oc2ccc(cc2Cl)[C@H]1O [Vancomycin, vancomycin]
- MIC ([1]; Streptococcus sp. strain 238, trypticase-soy agar plus blood): 2 µg/mL
- MIC ([1]; Streptococcus sp. strain 282, trypticase-soy agar plus blood): 2 µg/mL
- MIC ([1]; Streptococcus sp. strain 8043, trypticase-soy agar plus blood): 4 µg/mL
- MIC ([1]; Streptococcus sp. strain 9901, trypticase-soy agar plus blood): 4 µg/mL
- MIC ([1]; Streptococcus sp. strain 9913, trypticase-soy agar plus blood): 2 µg/mL
- MIC ([1]; Streptococcus sp. strain 9933, trypticase-soy agar plus blood): 8 µg/mL
- MIC ([1]; Streptococcus sp. strain 9960, trypticase-soy agar plus blood): 4 µg/mL
- MIC ([1]; Streptococcus sp. strain 12253P, trypticase-soy agar plus blood): 2 µg/mL
- MIC ([1]; Streptococcus sp. strain 55992, trypticase-soy agar plus blood): 4 µg/mL
- MIC ([1]; Streptococcus sp. strain Mitis, trypticase-soy agar plus blood): 4 µg/mL
- MIC ([1]; Streptococcus sp. strain Shrigley, trypticase-soy agar plus blood): 4 µg/mL
- MIC ([2]; S. aureus strain 3055, penicillin G susceptible): 1 µg/mL (≈ 0.69 µM)
- MIC ([2]; S. aureus strain 3074, penicillin G resistant, methicillin susceptible): 1 µg/mL (≈ 0.69 µM)
- MIC ([2]; S. aureus strain 3123, penicillin G susceptible): 1 µg/mL (≈ 0.69 µM)
- MIC ([2]; S. aureus strain 3125, penicillin G and methicillin resistant): 1 µg/mL (≈ 0.69 µM)
- MIC ([2]; S. aureus strain 3130, penicillin G and methicillin resistant): 1 µg/mL (≈ 0.69 µM)
- MIC ([2]; S. aureus strain 3131, penicillin G and methicillin resistant): 1 µg/mL (≈ 0.69 µM)
- MIC ([2]; S. aureus strain 3132, penicillin G and methicillin resistant): 1 µg/mL (≈ 0.69 µM)
- MIC ([2]; S. aureus strain 3133, penicillin G and methicillin resistant): 1 µg/mL (≈ 0.69 µM)
- MIC ([2]; S. aureus strain 3134, penicillin G and methicillin resistant): 1 µg/mL (≈ 0.69 µM)
- MIC ([2]; S. aureus strain 3135, penicillin G and methicillin resistant): 0.5 µg/mL (≈ 0.345 µM)
- MIC ([2]; S. aureus strain 3136, penicillin G and methicillin resistant): 0.5 µg/mL (≈ 0.345 µM)
- MIC ([2]; S. aureus strain 3137, penicillin G and methicillin resistant): 1 µg/mL (≈ 0.69 µM)
- MIC ([2]; S. aureus strain 3138, penicillin G and methicillin resistant): 1 µg/mL (≈ 0.69 µM)
- MIC ([2]; S. aureus strain 3139, penicillin G and methicillin resistant): 1 µg/mL (≈ 0.69 µM)
- MIC ([2]; S. aureus strain 3140, penicillin G and methicillin resistant): 0.5 µg/mL (≈ 0.345 µM)
- MIC ([2]; S. aureus strain H43, penicillin G resistant, methicillin susceptible): 1 µg/mL (≈ 0.69 µM)
- MIC ([2]; S. aureus strain H114, penicillin G resistant, methicillin susceptible): 1 µg/mL (≈ 0.69 µM)
- MIC ([2]; S. aureus strain H290, penicillin G susceptible): 1 µg/mL (≈ 0.69 µM)
- MIC ([2]; S. aureus strain H541, penicillin G resistant, methicillin susceptible): 1 µg/mL (≈ 0.69 µM)
